Data published in the NIST ThermoML archive (doi:10.1016/j.fluid.2010.10.028).

Test: xn = mol fraction of the nth substance listed
Settings: Liquid, Vibrating tube method

CC(C)=O [acetone] + CCCCCCC
Settings | mass density [kg/m3]
417.19 K, 24970 kPa, x1 = 0.4 | 667.12
417.19 K, 24970 kPa, x1 = 0.8992 | 667.12
417.19 K, 29860 kPa, x1 = 0.801 | 662.11
417.19 K, 29960 kPa, x1 = 0.4 | 675.37
417.19 K, 29960 kPa, x1 = 0.8992 | 675.37
417.19 K, 34850 kPa, x1 = 0.801 | 669.57
417.19 K, 34950 kPa, x1 = 0.4 | 682.9
417.19 K, 34950 kPa, x1 = 0.8992 | 682.9
417.19 K, 39860 kPa, x1 = 0.801 | 676.46
417.19 K, 39930 kPa, x1 = 0.4 | 689.8
417.19 K, 39930 kPa, x1 = 0.8992 | 689.8
417.19 K, 44860 kPa, x1 = 0.801 | 682.8
417.19 K, 44890 kPa, x1 = 0.7024 | 672.51
417.19 K, 49870 kPa, x1 = 0.801 | 688.76
417.19 K, 49890 kPa, x1 = 0.4 | 702.22
417.19 K, 49890 kPa, x1 = 0.7024 | 678.35
417.19 K, 49890 kPa, x1 = 0.8992 | 702.22
417.19 K, 54860 kPa, x1 = 0.801 | 694.3
417.19 K, 54870 kPa, x1 = 0.4 | 707.85
417.19 K, 54870 kPa, x1 = 0.8992 | 707.85
417.19 K, 54880 kPa, x1 = 0.7024 | 683.78
417.19 K, 59860 kPa, x1 = 0.7024 | 688.95
417.19 K, 59870 kPa, x1 = 0.801 | 699.57
417.19 K, 64830 kPa, x1 = 0.801 | 704.51
417.19 K, 69830 kPa, x1 = 0.801 | 709.22
417.19 K, 74920 kPa, x1 = 0.801 | 713.82
417.19 K, 79790 kPa, x1 = 0.7024 | 707.06
417.19 K, 79800 kPa, x1 = 0.4 | 732.02
417.19 K, 79800 kPa, x1 = 0.8992 | 732.02
417.19 K, 79910 kPa, x1 = 0.801 | 718.11
417.19 K, 84890 kPa, x1 = 0.801 | 722.24
417.19 K, 89750 kPa, x1 = 0.4 | 740.27
417.19 K, 89750 kPa, x1 = 0.8992 | 740.27
417.19 K, 94870 kPa, x1 = 0.801 | 730.03
417.19 K, 104800 kPa, x1 = 0.801 | 737.2
417.19 K, 114770 kPa, x1 = 0.801 | 743.97
417.19 K, 119800 kPa, x1 = 0.7024 | 735.65
417.19 K, 119830 kPa, x1 = 0.801 | 747.24
417.19 K, 124820 kPa, x1 = 0.7024 | 738.72
417.19 K, 124830 kPa, x1 = 0.801 | 750.39
417.19 K, 129810 kPa, x1 = 0.7024 | 741.7
417.19 K, 129840 kPa, x1 = 0.801 | 753.43
417.2 K, 1810 kPa, x1 = 0.7024 | 587.77
417.2 K, 4810 kPa, x1 = 0.7024 | 598.33
417.2 K, 9830 kPa, x1 = 0.7024 | 612.79
417.2 K, 14820 kPa, x1 = 0.7024 | 624.66
417.2 K, 19830 kPa, x1 = 0.7024 | 634.93
417.2 K, 24810 kPa, x1 = 0.7024 | 643.93
417.2 K, 29810 kPa, x1 = 0.7024 | 652.02
417.2 K, 34810 kPa, x1 = 0.7024 | 659.38
417.2 K, 39820 kPa, x1 = 0.7024 | 666.17
417.2 K, 44910 kPa, x1 = 0.4 | 696.21
417.2 K, 44910 kPa, x1 = 0.8992 | 696.21
417.2 K, 59870 kPa, x1 = 0.4 | 713.19
417.2 K, 59870 kPa, x1 = 0.8992 | 713.19
417.2 K, 64850 kPa, x1 = 0.4 | 718.24
417.2 K, 64850 kPa, x1 = 0.7024 | 693.8
417.2 K, 64850 kPa, x1 = 0.8992 | 718.24
417.2 K, 69820 kPa, x1 = 0.4 | 723.05
417.2 K, 69820 kPa, x1 = 0.8992 | 723.05
417.2 K, 69830 kPa, x1 = 0.7024 | 698.42
417.2 K, 74810 kPa, x1 = 0.4 | 727.63
417.2 K, 74810 kPa, x1 = 0.8992 | 727.63
417.2 K, 74820 kPa, x1 = 0.7024 | 702.83
417.2 K, 84780 kPa, x1 = 0.4 | 736.22
417.2 K, 84780 kPa, x1 = 0.7024 | 711.1
417.2 K, 84780 kPa, x1 = 0.8992 | 736.22
417.2 K, 89760 kPa, x1 = 0.7024 | 714.98
417.2 K, 89890 kPa, x1 = 0.801 | 726.21
417.2 K, 94720 kPa, x1 = 0.4 | 744.15
417.2 K, 94720 kPa, x1 = 0.8992 | 744.15
417.2 K, 94740 kPa, x1 = 0.7024 | 718.71
417.2 K, 99690 kPa, x1 = 0.4 | 747.91
417.2 K, 99690 kPa, x1 = 0.8992 | 747.91
417.2 K, 99840 kPa, x1 = 0.7024 | 722.39
417.2 K, 99840 kPa, x1 = 0.801 | 733.67
417.2 K, 104650 kPa, x1 = 0.4 | 751.51
417.2 K, 104650 kPa, x1 = 0.8992 | 751.51
417.2 K, 104810 kPa, x1 = 0.7024 | 725.87
417.2 K, 109620 kPa, x1 = 0.4 | 755.03
417.2 K, 109620 kPa, x1 = 0.8992 | 755.03
417.2 K, 109800 kPa, x1 = 0.801 | 740.64
417.2 K, 109810 kPa, x1 = 0.7024 | 729.22
417.2 K, 114590 kPa, x1 = 0.4 | 758.45
417.2 K, 114590 kPa, x1 = 0.8992 | 758.45
417.2 K, 114820 kPa, x1 = 0.7024 | 732.49
417.2 K, 119550 kPa, x1 = 0.4 | 761.72
417.2 K, 119550 kPa, x1 = 0.8992 | 761.72
417.2 K, 124810 kPa, x1 = 0.4 | 765.12
417.2 K, 124810 kPa, x1 = 0.8992 | 765.12
417.2 K, 129820 kPa, x1 = 0.4 | 768.24
417.2 K, 129820 kPa, x1 = 0.8992 | 768.24
